Here are results for twelve compounds from ChEMBL document CHEMBL1201862, “PubChem BioAssay data set” (2004).

Some test systems named below: LOX IMVI; M14; U-251; NCI-H460; SN12C; RPMI-8226; TK-10; SW-620; IGROV-1; UO-31; HOP-62; LXFL 529; 786-0; MOLT-4; KM12; SR; MDA-MB-435; T47D; BT-549; PC-3.
Test in all cases: NCI-60 cell line screen, 48 h

Each structure is given as a SMILES string.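 Grown in 96-well plates, cells were treated for 48 hours with each compound at five concentrations. Insufficient inhibition: endpoint recorded as highest concentration tested. The concentration for 50% growth inhibition is given as GI50.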 Activity calls are given as the source filed them. Rule as the data show it: active = GI50 up to about 1.1 µM and inactive = higher.

Consider `COc1ccc2[nH]c(=O)cc(C)c2c1[N+](=O)[O-]`, for which the GI50 in the assay with LOX IMVI, with M14, with U-251, in the assay with NCI-H460, with SN12C and in the assay with RPMI-8226 was > 100 µM (inactive) each time. Moreover, the GI50 in the assay with TK-10 was > 100 µM (inactive); in the assay on SW-620 it was > 100 µM (inactive); with IGROV-1, > 100 µM (inactive); in the assay on UO-31, 18.3 µM (inactive); with HOP-62, > 100 µM (inactive); with LXFL 529 it was > 100 µM (inactive). Besides, the GI50 in the assay with 786-0, in the assay on MOLT-4 and in the assay with KM12 was > 100 µM (inactive) each time.
Regarding `C=CCC1OC(C)(C)Oc2ccc(OCOCCOC)cc21` (stereo not drawn), the GI50 with LOX IMVI, with M14, in the assay on U-251, with NCI-H460, with SN12C and in the assay with TK-10 was > 100 µM (inactive) each time. Further, the GI50 in the assay on SW-620, with IGROV-1, in the assay on UO-31, with HOP-62, with LXFL 529 and with 786-0 was > 100 µM (inactive) each time. Moreover, the GI50 in the assay on MOLT-4 and with KM12 was > 100 µM (inactive) throughout.
In the case of `CC12CCCCC1(C)C2Sc1ccccc1` (stereo not drawn), the GI50 was 29.9 µM (inactive) in the assay with LOX IMVI; 88.5 µM (inactive) in the assay with M14; 32.3 µM (inactive) with U-251; > 68.4 µM (inactive) with NCI-H460; 64.3 µM (inactive) in the assay with SN12C; 18.4 µM (inactive) in the assay with RPMI-8226. Also, the GI50 was > 100 µM (inactive) with TK-10; 42.8 µM (inactive) in the assay on SW-620; > 81.7 µM (inactive) with IGROV-1; 57.9 µM (inactive) with UO-31; > 100 µM (inactive) in the assay with HOP-62; 63.8 µM (inactive) in the assay on LXFL 529. For the same compound, the GI50 in the assay on 786-0 was 44.8 µM (inactive); with MOLT-4, 19.1 µM (inactive); in the assay on KM12, 49.3 µM (inactive).
As for `Cc1ccccc1NC(=O)C1C(=O)N(c2ccccc2C)C(=O)/C1=N\NC(N)=O` (stereo not drawn), the GI50 in the assay on SR, with M14, in the assay with U-251, in the assay on NCI-H460, in the assay on SN12C and in the assay with TK-10 was > 100 µM (inactive) throughout. The GI50 with SW-620, in the assay with IGROV-1, in the assay with UO-31, in the assay with HOP-62, with LXFL 529 and with 786-0 was > 100 µM (inactive) in each case. The GI50 in the assay with MOLT-4 and with KM12 was > 100 µM (inactive) in each case.
On to `CCN(C1=CC(=O)NC2CCCCN12)c1ccccc1` (stereo not drawn), for which the GI50 in the assay on LOX IMVI, in the assay with M14, in the assay with U-251, in the assay with NCI-H460, in the assay on SN12C and in the assay on RPMI-8226 was > 100 µM (inactive) each time. The GI50 in the assay with TK-10 is > 100 µM (inactive); in the assay with SW-620 it was > 100 µM (inactive); in the assay with IGROV-1, > 100 µM (inactive); in the assay with UO-31, > 10 µM (inactive); in the assay on HOP-62, > 100 µM (inactive); in the assay with LXFL 529 it was > 100 µM (inactive). Also, the GI50 with 786-0, in the assay with MOLT-4 and in the assay with KM12 was > 100 µM (inactive) throughout.
With `NC1=NN(c2ccccc2)C(=O)C1C(=O)C(=O)Nc1ccccc1` (stereo not drawn), the GI50 in the assay on LOX IMVI, in the assay with M14, in the assay with U-251, in the assay on NCI-H460, in the assay on SN12C and with RPMI-8226 was > 100 µM (inactive) in each case. Also, the GI50 in the assay on TK-10, in the assay on SW-620, in the assay on IGROV-1, with UO-31, with HOP-62 and in the assay with LXFL 529 was > 100 µM (inactive) each time. In addition, the GI50 with 786-0, in the assay with MOLT-4 and with KM12 was > 100 µM (inactive) throughout.
As for `O=C(O)/C(=C/c1c(O)ccc2ccccc12)c1csc(-c2nc(/C(=C\c3c(O)ccc4ccccc34)C(=O)O)cs2)n1`, the GI50 with LOX IMVI was 19.8 µM (inactive); in the assay with M14 it was 11.7 µM (inactive); in the assay on U-251, 14 µM (inactive); in the assay on NCI-H460, 19 µM (inactive); in the assay on RPMI-8226 it was 9.38 µM (inactive); in the assay with TK-10, 29 µM (inactive). Besides, the GI50 in the assay on SW-620 was 24 µM (inactive); with IGROV-1, 11.1 µM (inactive); in the assay on UO-31 it was 1.53 µM (inactive); in the assay with HOP-62, 10 µM (inactive); in the assay on LXFL 529 it was 13.6 µM (inactive); in the assay with 786-0, 13.5 µM (inactive). Further, the GI50 in the assay on MOLT-4 is 13.4 µM (inactive); with KM12, 19.8 µM (inactive).
With `CC1=C(C(=O)Nc2c(C)cccc2C)C(c2ccccc2Cl)C(C(=O)Nc2c(C)cccc2C)=C(C)N1`, the GI50 in the assay on LOX IMVI, in the assay with M14, in the assay on U-251, in the assay on NCI-H460, with SN12C and with RPMI-8226 was > 100 µM (inactive) in each case. Further, the GI50 in the assay on TK-10, with SW-620, in the assay on IGROV-1, with UO-31, in the assay on HOP-62 and in the assay with LXFL 529 was > 100 µM (inactive) throughout. In addition, the GI50 in the assay on 786-0, in the assay with MOLT-4 and in the assay on KM12 was > 100 µM (inactive) throughout.
As to `COC(=O)c1sc(=S)sc1SCc1cccc(CSc2sc(=S)sc2C(=O)OC)c1`, the GI50 with SR is > 100 µM (inactive); in the assay with LOX IMVI, > 100 µM (inactive); in the assay on M14 it was 71.3 µM (inactive); in the assay on U-251, 25.3 µM (inactive); with MDA-MB-435, > 100 µM (inactive); in the assay with NCI-H460, > 100 µM (inactive). Also, the GI50 in the assay on SN12C was > 100 µM (inactive); with RPMI-8226, > 100 µM (inactive); with TK-10, 29.4 µM (inactive); in the assay on T47D, > 100 µM (inactive); in the assay with SW-620, > 100 µM (inactive); in the assay on BT-549, 26.9 µM (inactive). For the same compound, the GI50 with IGROV-1 is 60.7 µM (inactive); in the assay with UO-31, > 100 µM (inactive); in the assay on HOP-62, 16.1 µM (inactive); in the assay on PC-3, > 100 µM (inactive); in the assay with 786-0, 33.4 µM (inactive); with MOLT-4, > 100 µM (inactive). Further, in the assay with KM12, the GI50 was > 100 µM (inactive).
On to `Cc1cccc(-c2cc(O)c3ccc(C)nc3n2)c1`, for which the GI50 in the assay on SR is 0.0491 µM (active); in the assay on LOX IMVI it was 0.556 µM (active); in the assay with M14, 0.226 µM (active); with U-251, 0.389 µM (active); in the assay with MDA-MB-435, 0.0294 µM (active); in the assay on NCI-H460, 0.334 µM (active). Also, the GI50 in the assay with SN12C was 0.668 µM (active); in the assay on RPMI-8226 it was 0.43 µM (active); in the assay on TK-10, 3.3 µM (inactive); in the assay with T47D, 0.249 µM (active); in the assay on SW-620, 0.101 µM (active); in the assay with BT-549, 0.435 µM (active). Also, the GI50 was 0.601 µM (active) in the assay with IGROV-1; 3.77 µM (inactive) in the assay with UO-31; 0.546 µM (active) in the assay on HOP-62; 0.261 µM (active) in the assay with PC-3; 0.43 µM (active) with 786-0; 0.421 µM (active) with MOLT-4. Further, the GI50 in the assay with KM12 was 0.12 µM (active).
For the compound `Cc1ccc(NC(=S)N/N=C(/c2ccccc2)c2ccccn2)cc1`, the GI50 in the assay on SR is < 0.01 µM (active); in the assay with LOX IMVI it was 0.0346 µM (active); in the assay with M14, < 0.01 µM (active); with U-251, 0.0265 µM (active); with MDA-MB-435, 0.4 µM (active); with NCI-H460, 0.117 µM (active). Further, the GI50 is 0.121 µM (active) with SN12C; < 0.0161 µM (active) in the assay with RPMI-8226; 0.0631 µM (active) with TK-10; < 0.0509 µM (active) with T47D; < 0.0183 µM (active) in the assay on SW-620; 4.25 µM (inactive) in the assay on BT-549. The GI50 is < 0.0173 µM (active) with IGROV-1; 0.177 µM (active) in the assay with UO-31; 0.16 µM (active) in the assay on HOP-62; < 0.0154 µM (active) in the assay on PC-3; 0.0284 µM (active) in the assay on 786-0; < 0.0118 µM (active) in the assay on MOLT-4. In addition, the GI50 in the assay on KM12 is 0.1 µM (active).
On to `CC1NC(=O)c2c(-c3ccccc3)nn(-c3ccccc3)c2NC1=O` (stereo not drawn), for which the GI50 in the assay with SR, with LOX IMVI, with M14, with U-251, in the assay with MDA-MB-435 and in the assay with NCI-H460 was > 100 µM (inactive) in each case. Also, the GI50 in the assay on SN12C, in the assay on RPMI-8226, with TK-10, in the assay on T47D, in the assay on SW-620 and in the assay with BT-549 was > 100 µM (inactive) each time. The GI50 in the assay on IGROV-1, with UO-31, with HOP-62, with PC-3, in the assay with 786-0 and in the assay on MOLT-4 was > 100 µM (inactive) in each case. Besides, the GI50 in the assay with KM12 was > 100 µM (inactive).
